ChEMBL document CHEMBL1201862, “PubChem BioAssay data set” (2004)
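Following 48 hours of exposure in 96-well plates, responses at five concentrations were used to interpolate endpoints linearly. Here, GI50 denotes the concentration required for 50% inhibition of growth.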 Active and inactive are the calls of the source. Cut-off read from the data, not from the text of the source: active = GI50 up to about 1.1 µM and inactive = higher.

Experiments:
Assay in all cases: NCI anticancer screen, dose series, 48 h
[1] = system: NCI-H226
[2] = system: EKVX
[3] = system: SK-MEL-2
[4] = system: UACC-257
[5] = system: SK-MEL-28
[6] = system: MOLT-4
[7] = system: U-251
[8] = system: UO-31
[9] = system: MCF7
[10] = system: HOP-92
[11] = system: SW-620
[12] = system: A498
[13] = system: SK-MEL-5
[14] = system: PC-3
[15] = system: HT-29
[16] = system: NCI-H522
[17] = system: HCT-116
[18] = system: T47D
[19] = system: K562
[20] = system: CCRF-CEM
[21] = system: MDA-MB-231
[22] = system: RXF 393
[23] = system: TK-10
[24] = system: SF-268
[25] = system: NCI-H23
[26] = system: MDA-MB-435
[27] = system: A549
[28] = system: OVCAR-8
[29] = system: NCI/ADR-RES
[30] = system: HOP-62
[31] = system: BT-549
[32] = system: MDA-N
[33] = system: OVCAR-5
[34] = system: SR
[35] = system: SF-539
[36] = system: RPMI-8226
[37] = system: DU-145
[38] = system: SNB-75
[39] = system: NCI-H460
[40] = system: HL-60
[41] = system: KM12
[42] = system: OVCAR-3
[43] = system: SN12C
[44] = system: Hs-578T
[45] = system: CAKI-1
[46] = system: LOX IMVI
[47] = system: 786-0
[48] = system: Malme-3M
[49] = system: HCT-15
[50] = system: SF-295
[51] = system: IGROV-1
[52] = system: ACHN
[53] = system: HCC 2998
[54] = system: COLO 205
[55] = system: OVCAR-4
[56] = system: M14
[57] = system: M19-MEL
[58] = system: UACC-62
[59] = system: KM-20L2
[60] = system: SNB-19
[61] = system: DLD-1
[62] = system: SK-OV-3

Measured: GI50

CS(=O)(=O)OCC1CN(S(C)(=O)=O)c2cc(O)ccc21 (stereo not given)
3.1 µM: [49]
active: [16] 1.11 µM | [18] 0.498 µM | [20] 1.01 µM | [24] 0.524 µM
inactive: [1] 3.33 µM | [2] 4.37 µM | [3] 2.59 µM | [4] 2.68 µM | [5] 3.47 µM | [6] 1.22 µM | [7] 2.36 µM | [8] 3.26 µM | [9] 1.53 µM | [10] 3.09 µM | [11] 2.84 µM | [12] 2.64 µM | [13] 1.69 µM | [14] 2.09 µM | [15] 2.81 µM | [17] 2.77 µM | [19] 2.43 µM | [21] 2.3 µM | [22] 1.19 µM | [23] 2.37 µM | [25] 1.72 µM | [26] 2.02 µM | [27] 3.43 µM | [28] 2.67 µM | [29] 3.09 µM | [30] 2.47 µM | [31] 2.19 µM | [32] 1.91 µM | [33] 2.84 µM | [34] 2.05 µM | [35] 2.42 µM | [36] 1.87 µM | [37] 2.8 µM | [38] 2.37 µM | [39] 2.96 µM | [40] 1.87 µM | [41] 2.96 µM | [42] 2.82 µM | [43] 2.92 µM | [44] 3.52 µM | [45] 3.42 µM | [46] 3.17 µM | [47] 3.67 µM | [48] 2.02 µM | [50] 3.42 µM | [51] 3.85 µM | [52] 3.18 µM | [53] 1.89 µM | [54] 2.3 µM | [55] 2.67 µM

C/C(=N\NC(=O)c1cccnc1)c1cccc(/C(C)=N/NC(=O)c2cccnc2)n1
3.99 µM: [49]
active: [24] 0.867 µM
inactive: [2] 3.42 µM | [4] 3.06 µM | [7] 2.06 µM | [8] 3.81 µM | [11] 2.78 µM | [56] 2.85 µM | [57] 13.2 µM | [23] 4.67 µM | [58] 2.04 µM | [25] 7.4 µM | [27] 2.99 µM | [28] 2.43 µM | [59] 2.21 µM | [33] 2.08 µM | [35] 2.36 µM | [60] 3.56 µM | [39] 3.41 µM | [61] 1.95 µM | [41] 4.85 µM | [43] 4.81 µM | [46] 2 µM | [62] 4.14 µM | [50] 4.15 µM | [52] 1.48 µM

O=C1N=NC(=O)N1c1cc(C(F)(F)F)cc(C(F)(F)F)c1
3.2 µM: [49]
inactive: [1] 2.55 µM | [2] 3.24 µM | [3] 2.2 µM | [4] 3.16 µM | [5] 10.6 µM | [6] 3.37 µM | [7] 3.12 µM | [8] 2.44 µM | [9] 3.35 µM | [10] 2.75 µM | [11] 5.46 µM | [12] 5.4 µM | [13] 2.61 µM | [14] 2.65 µM | [15] 2.73 µM | [56] 5.7 µM | [16] 2.07 µM | [17] 3.24 µM | [18] 3.61 µM | [19] 3.37 µM | [20] 3.69 µM | [21] 2.38 µM | [22] 3.29 µM | [23] 3.68 µM | [58] 5.65 µM | [24] 3.7 µM | [25] 2.35 µM | [26] 4.38 µM | [27] 2.93 µM | [28] 3.38 µM | [29] 2.97 µM | [30] 4.17 µM | [31] 3.61 µM | [32] 4.17 µM | [33] 4.09 µM | [34] 4.69 µM | [35] 4.86 µM | [36] 2.89 µM | [37] 5.28 µM | [60] 4.03 µM | [38] 2.95 µM | [39] 3.23 µM | [40] 3.61 µM | [41] 3.93 µM | [42] 2.44 µM | [43] 3.75 µM | [44] 3.93 µM | [45] 2.94 µM | [46] 3.27 µM | [47] 4.68 µM | [48] 3.83 µM | [62] 3.81 µM | [50] 2.78 µM | [51] 3.83 µM | [52] 4.04 µM | [53] 3.45 µM | [54] 1.85 µM | [55] 4.21 µM
